Key:
[1] = Patient plasma cytokine profiling (Luminex 200), Phase 1 trial; assay type: in vivo, human
Protocol: Human cell line culture supernatants were analyzed using an R&D systems Human Premixed Multi-Analyte Kit (R&D Systems, Inc., Minneapolis, MN, USA) and a Luminex 200 (RRID: SCR_018025) Instrument (LX200-XPON-RUO, Luminex Corporation, Austin, TX, USA) according to the manufacturer's instructions. Sample levels of TNF-α, 4-1BB/TNFRSF9/CD137, IL-8/CXCL8, Ferritin, IFN-β, IL-10, CCL2/JE/MCP-1, VEGF, CXCL13/BLC/BCA-1, IFN-γ, CCL20/MIP-3 α, CCL3/MIP-1 α, CCL22/MDC, CCL4/MIP-1 β, Fas Ligand/TNFSF6, IL-17/IL-17A, IL-2, BAFF/BLyS/TNFSF13B, GM-CSF, CXCL5/ENA-78, TRANCE/TNFSF11/RANK L, CXCL9/MIG, G-CSF, IFN-γ R1/CD119, VEGFR3/Flt-4, C-Reactive Protein/CRP, CXCL11/I-TAC, IL-21, CXCL14/BRAK, IL-6, Fas/TNFRSF6/CD95, TRAIL R3/TNFRSF10C, IL-4, CCL5/RANTES, PD-L1/B7-H1, CCL7/MCP-3/MARC, Chitinase 3-like 1, CXCL10/IP-10/CRG-2, IL-1 β/IL-1F2, IL-7, Prolactin, CCL8/MCP-2, TRAIL R2/TNFRSF10B, M-CSF, IL-15, Granzyme B, IFN-α, TREM-1, IL-12/IL-23 p40, TRAIL/TNFSF10, CCL11/Eotaxin, and IL-18/IL-1F4. Quantitative analysis with 6 standards and a minimum of 50 counts per bead region was used with the Luminex to generate analyte values reported as picograms/milliliter (pg/mL). Sample concentrations less than the lower limit of detection for each particular analyte were recoded as the lower limit value divided by ten. […]

[2] = system: CT-26 MSS colon carcinoma; assay: Syngeneic murine colon carcinoma BALB/c model using MSS cell line CT-26, survival; assay type: in vivo, BALB/c mice; details: IP twice a week: elraglusib 70 mg/kg, anti-PD-1 10 mg/kg, anti-PD-L1 10 mg/kg
Protocol: The experimental in vivo protocol (Protocol #19-01-003) was approved by the Institutional Animal Care and Use Committee of Brown University (Providence, RI, USA). Six to 7 weeks-old female BALB/c mice (RRID: IMSR_JAX:000651) were purchased from Taconic. 50,000 cells were suspended in 50 μL ice-cold PBS and 50 μL Matrigel (Catalog # 354234, Corning, New York, USA), and 100 uL was injected subcutaneously into the rear flanks. Once tumor volume reached at least 100 mm^3, mice were randomly assigned to one of seven groups (3 mice/group): Control (isotype), elraglusib, elraglusib+Isotype, anti-PD-1, anti-PD-L1, elraglusib+anti-PD-1, and elraglusib+anti-PD-L1. All treatments were delivered by IP injection on the following dosing schedule: Isotype (70 mg/kg, twice a week), elraglusib (70 mg/kg, twice a week), anti-PD-1 (10 mg/kg, twice a week), anti-PD-L1 (10 mg/kg, twice a week). The treatment continued until mice developed signs of discomfort from excessive tumor growth. Mice were weighed once a week to monitor signs of drug toxicity. The length (L) and width (W) of the masses were measured three times per week with a digital caliper, and the tumor volume was calculated by applying the formula: 0.5LW2. Collection of whole blood and serum was performed by cardiac puncture and sent to Antech GLP for blood cell count and chemistry tests, or in-house cytokine profiling. […]

SW480 tumor cells = assay: Multicolor co-culture of SW480 tumor cells and donor-derived CD8+ T cells, EthD-1 dead cells; assay type: cell-based, human; details: for percentage of dead cells (average, normalized): then co-culture with donor-derived CD8+ T cells; for percentage of dead cells out of total cells (average, normalized): co-culture with donor-derived CD8+ T cells, 24 hours
Protocol: An Easy Step Human CD8+ T Cell Isolation Kit was used to isolate CD8+ T cells from a donor PBMC sample via negative selection (Cat #, 17913, Stem Cell Technologies, Vancouver, Canada).
10,000 HCT-116, SW480, or HT-29 cells were plated per well in a clear-bottom, black-walled 48-well tissue culture plate and were allowed to adhere overnight. Cells were subsequently treated with DMSO, 5 μM or 10 μM elraglusib, and/or 10,000 TALL-104 or NK-92 cells (for an effector-to-tumor ratio of 1:1) for 24 hours. CRC cells were labeled using CellTracker™ Green CMFDA (5-chloromethylfluorescein diacetate), immune cells (NK-92, TALL-104) were labeled using CellTracker™ Blue CMAC Dye (7-amino-4-chloromethylcoumarin), and ethidium homodimer-1 (EthD-1) was used as a marker of cell death (Invitrogen, Waltham, MA). 10× images were captured using a Nikon Ti-U Inverted Fluorescence Microscope and NIS-Elements F Package imaging software 3.22.00 Build 710 (Nikon Instruments Inc, USA). The number of red/green color cells in random fields was determined using thresholding and particle analysis in the Fiji modification (RRID: SCR_002285) of ImageJ and expressed as a dead/live cell ratio. Normalization was carried out by subtracting the percentage of cell death due to drug or vehicle control (DMSO) only from the percentage of dead cells observed in the co-culture of tumor and immune cells treated with the drug. At least 100 cells were evaluated per sample, with 3 independent replicates. Statistical analysis was done using GraphPad Prism 9 (RRID: SCR_002798).

Cn1cc(C2=C(c3coc4ccc(F)cc34)C(=O)NC2=O)c2cc3c(cc21)OCO3 [elraglusib, 3-(5-fluorobenzofuran-3-yl)-4-(5-methyl-5H-[1,3]dioxolo[4,5-f]indol-7-yl)-1H-pyrrole-2,5-dione]
plasma cytokines, chemokines and growth factors (many of the analytes) vs baseline ([1]; 8- and 24-hours post-dose): upregulated | plasma expression of many of the analytes in the panel ([1]; patients receiving a 7 mg/kg dose, 8- and 24-hour post-dose): increased expression | survival (Kaplan-Meier) as compared to the control [2]: statistically significant improved survival | percentage of dead cells (average, normalized) (SW480 tumor cells; 10 μM for 24 hours): 70% | percentage of dead cells out of total cells (average, normalized) (SW480 tumor cells; 5 μM): 65% | percentage of dead cells out of total cells (average, normalized) (SW480 tumor cells; 10 μM): 75% | tumor cell death in SW480 monocultures (SW480 tumor cells; drug only, no immune cells): limited tumor cell death | percentage of dead cells (average, normalized) (SW480 tumor cells; tumor cells pre-treated with 5 μM for 24 hours): 65%

Reference: US20260256741A1, “ANTICANCER MALEIMIDE DERIVATIVES FOR USE WITH IMMUNE CHECKPOINT BLOCKADE” (BROWN UNIVERSITY, priority 2022, published 2026)
